Legend:
[1] = cells; conditions: Homo sapiens, MRC-5 SV2, 72 h
Description: (§1) Cytotoxicity against human MRC5 SV2 cells assessed as reduction in cell viability incubated for 3 days by fluorimetry

[2] = test system: Macrophage; test: cells; conditions: Mus musculus, 72 h
Description: (§2) Cytotoxicity against mouse peritoneal Macrophage cells assessed as reduction in cell viability incubated for 3 days by fluorimetry

[3] = in vitro; conditions: human, MRC5 SV2 cells
Description: as §1

[4] = in vitro; conditions: human, liver microsomes
Description: Metabolic stability in human liver microsomes assessed as intrinsic clearance at 0.5 uM incubated for 30 mins by LC-MS/MS analysis

[5] = in vitro; conditions: mouse, liver microsomes
Description: Metabolic stability in mouse liver microsomes assessed as intrinsic clearance at 0.5 uM incubated for 30 mins by LC-MS/MS analysis

[6] = physchem; conditions: buffer, pH 7.4
Description: Lipophilicity, logD of compound at pH 7.4 by HPLC analysis

[7] = in vitro; conditions: human, MRC5 SV2 cells; remark: listed apart in the source
Description: Selectivity index, ratio of IC50 for human MRC5 SV2 cells to IC50 for Trypanosoma cruzi Tulahuen CL2 amastigotes infected in human MRC5 SV2 cells

[8] = in vitro; conditions: mouse, peritoneal macrophages
Description: as §2

[9] = in vitro; conditions: mouse, peritoneal macrophages; remark: listed apart in the source
Description: Selectivity index, ratio of IC50 for mouse peritoneal macrophage to IC50 for Leishmania infantum MHOM/MA(BE)/67/ITMAP263 infected in mouse peritoneal macrophage

[10] = test system: Trypanosoma cruzi; test: microbe, parasite or virus in culture; conditions: Tulahuen CL2, MRC-5 SV2, 168 h
Description: Antitrypanosomal activity against Trypanosoma cruzi Tulahuen CL2 amastigotes infected in human MRC5 SV2 cells incubated for 7 days by chlorophenol red beta-D-galactopyranoside substrate based spectrophotometric assay

[11] = test system: Trypanosoma brucei; test: microbe, parasite or virus in culture; conditions: Squib 427, 72 h
Description: Antitrypanosomal activity against Trypanosoma brucei Squib 427 assessed as reduction in parasite growth incubated for 72 hrs by resazurin dye based fluorimetric analysis

[12] = test system: Trypanosoma brucei rhodesiense; test: microbe, parasite or virus in culture; conditions: STIB900, 72 h
Description: Antiprotozoal activity against Trypanosoma brucei rhodesiense STIB900 trypomastigotes incubated for 72 hrs by resazurin dye based fluorimetric analysis

[13] = test system: Leishmania infantum; test: microbe, parasite or virus in culture; conditions: for IC50: MHOM/MA(BE)/67/ITMAP263, 120 h; for IC90: MHOM/MA(BE)/67/ITMAP263, in Mus musculus, 120 h
Description: Antileishmanial activity against amastigote stage of Leishmania infantum MHOM/MA(BE)/67/ITMAP263 infected in mouse peritoneal macrophage assessed as parasite growth inhibition incubated for 5 days by Giemsa staining based assay

[14] = in vitro; conditions: human, MRC5 SV2 cells; remark: listed apart in the source
Description: Selectivity index, ratio of IC50 for human MRC5 SV2 cells to IC50 for Trypanosoma brucei rhodesiense STIB900 trypomastigotes

[15] = in vitro; conditions: PAMPA
Description: Effective permeability of compound by PAMPA assay

[16] = in vitro; conditions: mouse, liver microsomes; remark: listed apart in the source
Description: Metabolic stability in mouse liver microsomes assessed as fraction unbound at 0.5 uM incubated for 30 mins by LC-MS/MS analysis

| SMILES | IC50 [1] [µM] | IC50 [2] [µM] | IC90 at 72 h [3] [µM] | CLint scaled at 0.5 h, 0.5 µM [4] [mL/min/kg] | microsomal CLint at 0.5 h, 0.5 µM [4] [µL/min/mg] | CLint scaled at 0.5 h, 0.5 µM [5] [mL/min/kg] | microsomal CLint at 0.5 h, 0.5 µM [5] [µL/min/mg] | logD [6] | IC90 at 72 h [8] [µM] | IC50 [10] [µM] | IC90 [10] [µM] | IC50 [11] [µM] | IC90 [11] [µM] | IC50 [12] [µM] | IC90 [12] [µM] | IC50 [13] [µM] | IC90 [13] [µM] | selectivity ratio [14] | Papp [15] [×10⁻⁶ cm/s] | fraction unbound at 0.5 h, 0.5 µM [16] | further results |
| --- | --- | --- | --- | --- | --- | --- | --- | --- | --- | --- | --- | --- | --- | --- | --- | --- | --- | --- | --- | --- | --- |
| CC(C)c1cc(C(=O)N2CCCC(O)(c3cc4ncccc4[nH]3)C2)on1 (centres undefined) | 56.5 to 64 | 64 | 64 | 31 to 38.5 | 23 to 26.6 | 616 to 2560 | 155 to 600 | 2.26 | 64 | 8.35 to 58.5 | 15.6 to 64 | 64 | 64 | 51.8 to 64 | 64 | 49.3 to 64 | 64 | – | – | – | selectivity ratio [7]: 1.9; selectivity ratio [9]: 1.14 |
| O=C(c1ccc(F)cc1)N1CCCC(c2cc3nc(C(F)(F)F)ccc3[nH]2)C1 (centres undefined) | 64 | 64 | 64 | 118 | 77.6 | 1110 | 247 | 3.88 | 64 | 64 | 64 | 64 | 64 | 28.7 | 57.5 | 64 | 64 | 2.19 | 12.2 | 0.713 | – |
| O=C(c1cc(C(F)(F)F)no1)N1CCCC(c2cc3ncc(Br)cc3[nH]2)C1 (centres undefined) | 64 | 64 | 64 | 193 | 87.8 | 2800 | 431 | 4.27 | 64 | 64 | 64 | 64 | 64 | 22.9 | 62.7 | 57 | 64 | 2.8 | 7.99 | 0.491 | – |
| O=C(c1cc(C(F)(F)F)no1)N1CCCC(c2cc3ncccc3[nH]2)C1 (centres undefined) | 64 | 64 | 64 | 323 | 184 | 2330 | 449 | 3.42 | 64 | 4.08 | 45.3 | 64 | 64 | 40.4 | 60.9 | 64 | 64 | 1.61 | 3.45 | 0.615 | selectivity ratio [7]: 15.7 |
| CC(C)(C)c1cc(C(=O)N2CCCC(c3cc4ncccc4[nH]3)C2)on1 (centres undefined) | 64 | 64 | 64 | 321 | 177 | 2150 | 403 | 3.4 | 64 | 2.18 | 64 | 64 | 64 | 34.7 | 64 | 64 | 64 | 1.83 | 2.97 | 0.598 | selectivity ratio [7]: 29.4 |
| O=C(Nc1ccc(-c2cc3ncccc3[nH]2)cc1)c1ccccc1 | 64 | 45.3 | 64 | ≥ 105 | 97.5 | ≥ 597 | 187 | 3.86 | 59.7 | 25.2 | 64 | 64 | 64 | 44.6 | 64 | 45.6 | 60.5 | 1.45 | 0.545 | – | selectivity ratio [7]: 2.54 |
| O=C(c1cc(C(F)(F)F)no1)N1CCCC(c2cc3ncc(-c4ccccc4)cc3[nH]2)C1 (centres undefined) | 64 | 45.3 | 64 | 1350 | 196 | – | – | 4.59 | 59.7 | 64 | 64 | 64 | 64 | 64 | 64 | 35.1 | 59.6 | – | 0.307 | 0.157 | selectivity ratio [9]: 1.79 |

— ChEMBL document CHEMBL4342426, “Structure-activity relationship of 4-azaindole-2-piperidine derivatives as agents against Trypanosoma cruzi” (Bioorg Med Chem Lett, 2020)
